This note sets out measurements from US9210935B2, “Pesticide composition comprising fosetyl-aluminium, propamocarb-HCl and an insecticide active substance” (BAYER INTELLECTUAL PROPERTY GMBH, priority 2006, dated 2015).

Holding throughout (assay type): in vivo
For assay [1], the system named is larvae of the fall army worm (Spodoptera frugiperda). Briefly: Spodoptera frugiperda test (cabbage leaf dip, mortality). The settings on record: mortality after 4 days, cabbage leaves dipped.
For assay [2], the system named is larvae of the diamond black moth Plutella xylostella. Briefly: Plutella xylostella test (cabbage leaf dip, mortality). The conditions noted are these: mortality after 6 days, cabbage leaves dipped.
Assay [3] relates to larvae of the beet army worm (Spodoptera exigua). Description: Spodoptera exigua test (cabbage leaf dip, mortality). The conditions noted are these: mortality after 4 days, cabbage leaves dipped.

The molecule `CN/C(=N\[N+](=O)[O-])NCc1cnc(Cl)s1` [clothianidin] had an Efficacy in assay [1] (rate of application 4 ppm) of 50%.

The molecule `O=[N+]([O-])NC1=NCCN1Cc1ccc(Cl)nc1` [imidacloprid] had an Efficacy in assay [2] (rate of application 100 ppm) of 15%. For the molecule `CCCOC(=O)NCCCN(C)C.Cl` [propamocarb-HCl, propyl[3-(dimethylamino)propyl]carbamate hydrochloride], the figures for the Efficacy in assay [3] (rate of application 200 ppm), in assay [2] (rate of application 200 ppm) and in assay [1] (rate of application 200 ppm) were 0%, 0% and 10%, respectively. As to `N#C/N=C1\SCCN1Cc1ccc(Cl)nc1` [thiacloprid], in assay [1] (rate of application 20 ppm), the Efficacy stood at 0%. For the molecule `CN1COCN(Cc2cnc(Cl)s2)/C1=N\[N+](=O)[O-]` [thiamethoxam], the Efficacy in assay [3] (rate of application 20 ppm) came to 0%.
